In US20220073557A1, “FLUORINATED BILE ACIDS” (NZP UK LIMITED, priority 2018, published 2022):
Like-named read-outs stand apart in the source and are kept apart here.

Columns and labels:
Format in all cases: cell-based, human
[1] = tested on: sporadic PD patient fibroblast lines; experiment: Seahorse assay (oxygen consumption, extracellular acidification rate) in sPD fibroblasts; conditions: Homo sapiens, Fibroblast; concentration at which compounds were dosed in the seahorse assay; read-out: EC90 concentration
Protocol: Fibroblasts are plated into Seahorse 24 well plates with 50,000 cells per well. Cells are left to attach for 2 days. Media is changed to Seahorse DMEM media with glucose and sodium pyruvate and left to equilibrate at 37 degrees normal air CO2 for 1 hour. The plate is entered into the Seahorse machine and run on a program of mix (2 minutes), wait (3 minutes) and measure (3 minutes). After three measurements of basal respiration and ECAR; 0.5 μM oligomycin is injected after which another three measurements are taken; then 0.5 μM of FCCP is injected and three measurements taken and finally 1 μM rotenone is injected and three measurements taken. After all measurements are complete, cells are stained with 10 μM Hoescht and imaged using the InCell to count the number of cells per well for normalisation. This classical ritochondrial stress test experimental protocol allows us to calculate the basal mitochondrial respiration, ATP linked respiration (the amount which is coupled to ATP generation), the maximal and spare respiratory capacity, the non-mitochondrial respiration rate and the extracellular acidification rate which is a proxy measure of glycosolysis.

[2] = tested on: dopaminergic neurons derived from sPD patients (iNeurons); experiment: Mitochondrial function and neuronal morphology measurements in iNeurons from sPD patients; conditions: iNeurons from sPD patients; for EC50: Homo sapiens, Neuron
Protocol: Fibroblasts were cultured in DMEM (Invitrogen) and routinely subcultured every 3-5 days using trypsin to dissociate them.
(§1) Briefly, iNPCs are plated in a 6-well plate and cultured for 2 days in DMEM/F-12 medium with Glutamax™ supplemented with 1% NEAA, 2% B27 (Gibco) and 2.5 μM of DAPT. On day 3, DAPT is removed and the medium is supplemented with 1 μM smoothened agonist (SAG) and FGF8 (75 ng/ml) for additional 10 days. Neurons are replated at this stage. Subsequently SAG and FGF8 are withdrawn and replaced with BDNF (30 ng/ml), GDNF (30 ng/ml), TGF-b3 […] and dcAMP (2 mM, Sigma) for 15 days.
Cells are plated in 96 well plates; for live imaging cells are incubated for one hour at 37 degree with 80 nM tetramethlyrhodamine (TMRM), 1 μM LysoTracker® Green (Invitrogen) and Hoechst Stain solution (Sigma) at 1 μM before imaging using Opera Phenix™. Cellular ATP measurements are undertaken using ATPlite kit (Perkin Elmer) as per manufacturer's instructions. Mitochondrial reactive oxygen species generation was assessed using mitochondrial NpFR2 (probe; a kind gift from Dr Liz New, University of Sydney, Australia) at 20 μM and Hoechst stain solution at 1 μM for 30 mins at 37° C., then the dyes are removed and cells images using Opera Phenix™. Images generated from the live imaging experiments were analysed using Harmony® (Perkin Elmer software). We developed protocols in order to segment nucleus, cell boundary and processes, mitochondria, lysosomes, autophagosomes. We only analysed the z projection images collected from the z stacks.

[3] = tested on: dopaminergic neurons derived from sPD patients (iNeurons); experiment: Activated caspase 3 immunofluorescence staining in iNeurons; conditions: untreated sPD 162
Protocol: as §1
Cells are plated into 96 well plates and fixed using 4% paraformaldehyde for 30 minutes. After PBS washes cells are permeabilised using 0.1% Triton™ X-100 for 10 minutes and blocked using 5% goat serum for 1 hour. Cells are incubated with primary antibodies tyrosine hydroxylase (St John's Laboratory); DAT (Abcam); Tuj (Millipore); Tom20 (BD Biosciences); activated caspase 3 (Cell Signaling); alpha synuclein (Cell Signaling); phosphorylated alpha synuclein (Millipore) at 4° C. for 16 hours. Cells are washed using PBS-Tween® and incubated with Alexa Fluor™-conjugated secondary antibodies 488 and 568 (Invitrogen) and Hoescht (Sigma) 1 μM prior to imaging. Imaging was performed using the Opera Phenix™ high content imaging system (Perkin Elmer).

[4] = tested on: dopaminergic neurons derived from sPD patients (iNeurons); experiment: Dopamine ELISA in iNeurons; conditions: untreated sPD 0
Protocol: as §1
Dopamine ELISA is performed using Dopamine research ELISA kit (Labor Diagnostika Nord GmbH&Co. KG) as per manufacturers instructions. Dopamine release is obtained incubating the cells at 37° C. using three different conditions at the same time per line. Medium is removed in all wells then the first well is incubated with HBSS with Ca^2+ and Mg^2+ (Gibco by Life Technologies) for 30 minutes, the second well is incubated in HBSS with Ca^2+ and Mg^2+ for 15 minutes and then 56 mM KCl (Fisher chemical) is added for another 15 minutes and the third well is incubated with HBSS without Ca^2+ and Mg^2+ (Gibco by Life Technologies) but with 2 mM EDTA for 15 min and then 56 mM KCl is added for another 15 minutes. Straight away media is collected in an eppendorf and cells are harvested using Accutase®, centrifuge at 400 g for 4 min and resuspended in 10 μl of PBS. […]

[5] = tested on: sAD and familial AD (PSEN1 mutants) patient fibroblasts; experiment: Total cellular ATP levels in Alzheimer's disease patient fibroblasts; conditions: 24 hour treatment at 100 nM, 21% restores to control levels
Protocol: Briefly, fibroblasts were cultured as and plated into white 384 well plates with 5000 cells per well in 50 μl of media volume. The plates are left overnight in an incubator to allow the fibroblasts to adhere to the plate surface. The following morning the Glucose based medium is replaced with 25 μl of Galactose based medium. The compounds are added to the plates using a ECHO 550 liquid handling system. The wells were dosed to provide an 8-point concentration range of 0.06 nM-300 nM of compound. After dosing the wells are topped up with a further 25 μl of Galactose based medium and then left in an incubator for 24 hours. Following this incubation the medium is removed from the plate and the wells are washed twice with sterile PBS. The wells are filled with 25 μl of Sterile PBS followed by 12.5 μl of Lysis solution from the ATPlite™ Luminescence ATP detection assay system (Perkin Elmer), including 16 cell free wells to use as blank controls. The plate is then placed on a rotary shaker for 5 mins at 700 rpm. Following the shaking 12.5 μl of ATP substrate solution (Perkin Elmer) is added to each well and a further 5 min of shaking. The plate is then placed in darkness for 10 minutes prior to reading. Using a PHERAStar® plate reader, luminescence intensity is recorded. Following the ATP assay the plates are immediately assayed for DNA content in a CyQUANT® assay.
Immediately following The ATP assay DNA content is assessed with the CyQUANT® NF Cell Proliferation Assay Kit (ThermoFisher). CyQUANT® buffer is prepared immediately before the assay and is comprised of 1 ul CyQUANT® dye per ml×1 HBSS solution. 12.5 ul of CyQUANT® buffer is added to each well. Plate left in incubator for 1 hour then read on a PHERAStar® Plate reader with excitation at 497 nm and emission at 520 nm.
Data shown in the Table 6 below is the mean increase in ATP levels after 24 hour treatment with compounds at 100 nM concentration.

## C[C@H](CCC(=O)O)[C@H]1CC[C@H]2[C@@H]3[C@@H](O)C[C@@H]4C[C@H](O)CC[C@]4(C)[C@H]3CC[C@]12C [UDCA, ursodeoxycholic acid, reference compound]
[1]
  EC90: 100 nM
[2]; read-out: ATP EC50
  EC50: 5 nM
[2]; read-out: MMP EC50
  EC50: 7.3 nM
[2]; untreated sPD 48
  Neuronal morphology (elongation; % controls): 64 % controls
[2]; untreated sPD 50
  ATP normalisation (% of controls): 82 % of controls
[2]; untreated sPD 52
  MMP normalisation (% of controls): 73 % of controls
[2]; untreated sPD 115
  ROS (Normalisation) (% controls): 110 % controls
[3]
  Activated caspase 3 levels: 143 % of level in iNeurons from Controls
[4]
  Dopamine level (increase in dopamine release): No effect
[5]
  % increase over vehicle treated (mean increase in ATP levels): 12%
